Assay results as given in patent US20060276423A1, “Survivin-directed RNA interference-compositions and methods” (priority 2005, published 2006).
Starred links: 1 amine or outer side, 2 acyl side, 3 side chain; linkers in the order of their positions; H or OH if unused. Positions of bridges follow the written chain, without caps; N, C: chain ends. Non-standard residues stand in square brackets, D forms with d. Residues, ends and D or L forms follow the SMILES beside them. Chains are numbered I, II in the order given. Actinocin(9to1) = Cc1c2oc3c(C)ccc(C(=O)[*:1])c3nc-2c(C(=O)[*:2])c(N)c1=O; NMeV = CN[C@H](C(=O)O)C(C)C; Sar = CNCC(=O)O

Test system: Human Umbilical Vein Endothelial (HUVE) cells
Assay: In vitro tube formation assay on BME
Format: cell-based
Details: most marked between 4 and 16 hours after plating
Experimental: FIG. 7: Interference with Survivin-ΔEx3 inhibits angiogenesis in vitro. Human Umbilical Vein Endothelial (HUVE) cells were transfected with shRNAs of the instant invention or incubated with antibodies against Survivin-ΔEx3 and the results compared to HUVE cells treated with known inducers/inhibitors of in vitro angiogenesis. Treated/transfected cells were plated on growth factor reduced basement membrane extract (BME) to support in vitro tube formation. […] Quantitative data shown in (E) are mean±s.e. of 5 replicates per sample.
Survivin ΔEx3 activity was disrupted in an in vitro tube formation assay by either downregulating Survivin ΔEx3 mRNA with an shRNA or inhibiting Survivin ΔEx3 protein with an anti-Survivin ΔEx3 antibody. To downregulate transcription, an shRNA targeting the exon2-exon-4 boundary, specific for Survivin ΔEx3 was used. A scrambled shRNA and a cocktail of 3 shRNAs targeting all Survivin isoforms were used as controls (FIG. 7). HUVECs were transfected with shRNA plasmids in combination with a plasmid encoding eGFP. The cells were sterile sorted by FACS to isolate the population of cells that was successfully transfected, based on eGFP fluorescence. […] Tube formation was quantified by counting the number of branches and tube length from 5 representative fields per replicate, in a double-blinded fashion.

`Cc1c2oc3c(C)ccc(C(=O)N[C@@H]4C(=O)N[C@H](C(C)C)C(=O)N5CCC[C@H]5C(=O)N(C)CC(=O)N(C)[C@@H](C(C)C)C(=O)O[C@@H]4C)c3nc-2c(C(=O)N[C@@H]2C(=O)N[C@H](C(C)C)C(=O)N3CCC[C@H]3C(=O)N(C)CC(=O)N(C)[C@@H](C(C)C)C(=O)O[C@@H]2C)c(N)c1=O` [actinomycin-D] (I: T[dV]P[Sar][NMeV] / II: T[dV]P[Sar][NMeV]; ester I:1-I:C, II:1-II:C; linker I:N-II:N via Actinocin(9to1)) was tested, and the “tube formation on BME” value was “inhibition of tube formation”.
